{"source": "patent US20120213789A1", "about": "“New Molecular Target for Treatment of Cancer” (priority 2001, published 2012)", "format_in_all_cases": "cell-based, human", "key": {"[1]": {"tested_on": "C4-2B Metastatic Prostate Cell Line", "test": "UROC28/Bcl-2 label flow cytometry after SPB treatment", "settings": "for Total Bcl-2 / Total UC2BC: section UROC28/Bcl-2", "description": "Cells were grown to 70-80% confluence at 37° C. and 5% CO2 in T-75 tissue culture plastic flasks. SPB stock solution was added to final concentrations of 0.5, 5.0, 10.0, and 25.0 mM in appropriate fresh media to the cell cultures. Cells were incubated at 37° C. and 5% CO2 for 72 hours. Attached cells were then harvested using a solution of 0.05% trypsin and 0.53 mM EDTA (Invitrogen Corp.). Attached cells were then pooled with any the detached cells and washed with PBS pH 7.2. Cell numbers and percent viability were determined using Trypan blue dye exclusion and a hemacytometer. At the time of their use in an experiment the viability was usually about 85% for untreated cells and a range of about 15-70% for treated cells, with the lower viabilities found at higher SPB concentrations (Thompson C, 1995; Cory et al., 1998; van Engeland et al., 1996).\nUC28(C) is 2.14 mg/ml rabbit polyclonal aliquot directed against the inventors' UC28 patented biomarker developed by UCor R&D gene discovery program. The Antibody was produced against a twenty amino acid (AA) synthetic peptide from the predicted AA sequence (AA 21-37) UCor, Inc. 840 Research Parkway Oklahoma City, Okla. 73104.\nGoat Anti-Rabbit CY5 polyclonal Fluorchrome was used as the secondary conjugate for UC28 C rabbit polyclonal antibody and a background control for UC28 C polyclonal. Vendor is Jackson ImmunoResearch Laboratories, Inc. 872 West Baltimore Pike, P.O. Box 9 West Grove, Pa. 19390.\nBc12 IgG1 kappa-FITC isomer 1 is a purified monoclonal mouse specific for Bc1-2 protein. Vendor is Dalco Corporation 6392 Via Real, Carpinteria, Calif. 93013 USA.\nMsIgG1 kappa-FITC isomer 1 is a purified isotype specific control for Bc1-2 monoclonal antibody. Vendor is Dako Corporation 6392 Via Real, Carpinteria, Calif. 93013 USA.\nCytofix/Cytoperm™ ICit enables fixation and permeabilization of cells prior to staining with fluorochrome-conjugated antibodies. Vendor is BD-PharMingen, 10975 Torreyana Road, San Diego, Calif. 92121-1106.\nA Coulter Elite engineered with a triple laser system was used to analyze all samples. Coulter control beads were used to align lasers for the dual label testing of cell samples. Laser alignment was required for both the Argon (488 nm line) laser and HeNe (633 nm line) laser. These alignments were performed prior to all measurements with the Argon laser (488 nm line) using fluorophores for FITC, RPE, PI and the HeNe laser (633 nm line) for the Cy5 fluorophores being used for the experiments described below. The histographs, voltage settings, gates, color compensation, and pressures were established prior to all sample processing.\n(a) Tissue culture cells (MLC-SV40, LNCaP and C 4-2B) were aliquoted at concentration of 1×10^6 per teach 12×75 mm polystyrene tube. Label tubes as follows: • (i) No Antibody • (ii) Secondary GAR-CY5 polyclonal=(control for UC28 CIDGARCY5 polyclonal) vs MsIgG1-RPE (control for FAS-RPE monoclonal) • (iii) UC28 C-IDGARCY5 polyclonal vs FAS (CD45)—RPE monoclonal • (iv) SecondaryGAR-CY5 polyclonal=(control for UC28 C-IDGARCY5 polyclonal) vs MsIgG1-FITC (control for Bc12-FITC monoclonal) • (v) UC28 C-IDGARCY5 polyclonal vs Bc12-FITC monoclonal • (vi) UC28 C-IDGARCY5 Polyclonal=(single label for checking instrument after setting Coulter Elite flow cytometer for dual analysis using the three different fluorchromes.) • (vii) FAS ([…])—RPE monoclonal=(single label for checking instrument after setting Coulter Elite flow cytometer for dual analysis using the three different fluorchromes.) • (viii) Bc12-FITC monoclonal=(single label for checking instrument after setting Coulter Elite flow cytometer for dual analysis using the three different fluorchromes.)\n(c) A volume of 100 μl of UC28 C rabbit polyclonal unconjugated antibody was added to the appropriately labeled tubes. All other tubes received 100 μl PBS (pH7.3) and all tubes were incubated at room temp in the dark for 1 hour. […]"}, "LNCaP cell line": {"tested_on": "LNCaP cell line", "test": "Dose-response kinetics of UC28 protein expression by flow cytometry", "description": "(§1) Cells were grown to 70-80% confluence at 37° C. and 5% CO2 in T-75 tissue culture plastic flasks. SPB stock solution was added to final concentrations of 0.5, 5.0, 10.0, and 25.0 mM in appropriate fresh media to the cell cultures. Cells were incubated at 37° C. and 5% CO2 for 72 hours. Attached cells were then harvested using a solution of 0.05% trypsin and 0.53 mM EDTA (Invitrogen Corp.). Attached cells were then pooled with any the detached cells and washed with PBS pH 7.2. Cell numbers and percent viability were determined using Trypan blue dye exclusion and a hemacytometer. At the time of their use in an experiment the viability was usually about 85% for untreated cells and a range of about 15-70% for treated cells, with the lower viabilities found at higher SPB concentrations (Thompson C, 1995; Cory et al., 1998; van Engeland et al., 1996). UC28(C) is 2.14 mg/ml rabbit polyclonal aliquot directed against the inventors' UC28 patented biomarker developed by UCor R&D gene discovery program. The Antibody was produced against a twenty amino acid (AA) synthetic peptide from the predicted AA sequence (AA 21-37) UCor, Inc. 840 Research Parkway Oklahoma City, Okla. 73104. Goat Anti-Rabbit CY5 polyclonal Fluorchrome was used as the secondary conjugate for UC28 C rabbit polyclonal antibody and a background control for UC28 C polyclonal. Vendor is Jackson ImmunoResearch Laboratories, Inc. 872 West Baltimore Pike, P.O. Box 9 West Grove, Pa. 19390. A Coulter Elite engineered with a triple laser system was used to analyze all samples. Coulter control beads were used to align lasers for the dual label testing of cell samples. Laser alignment was required for both the Argon (488 nm line) laser and HeNe (633 nm line) laser. These alignments were performed prior to all measurements with the Argon laser (488 nm line) using fluorophores for FITC, RPE, PI and the HeNe laser (633 nm line) for the Cy5 fluorophores being used for the experiments described below. The histographs, voltage settings, gates, color compensation, and pressures were established prior to all sample processing. […] The data confirms the biological differences in these three cell lines and provides a stronger basis upon which to assess the behavior of the UC28 gene under the same SPB treatment conditions. For both of these experiments, supernatants were collected from the same experiments as in Example 1; cells were collected and assayed for apoptosis as well as for UC28 antigen expression using antibodies to SEQ ID NO:4."}, "C4-2B cell line": {"tested_on": "C4-2B cell line", "test": "Dose-response kinetics of UC28 protein expression by flow cytometry", "description": "as §1"}}}
{"molecule": "O=C([O-])CCCc1ccccc1.[Na+]", "note": "[SPB, 4-Phenylbutyric Acid, Sodium Salt]", "values": [{"measurement": "Total Bcl-2", "setting": "[1]; 5.0 mM SPB", "result": 5.4, "unit": "%"}, {"measurement": "Total UC2BC", "setting": "[1]; 5.0 mM SPB", "result": 96.0, "unit": "%"}, {"measurement": "Total Bcl-2", "setting": "[1]; 10 mM SPB", "result": 0.3, "unit": "%"}, {"measurement": "Total UC2BC", "setting": "[1]; 10 mM SPB", "result": 93.9, "unit": "%"}, {"measurement": "Bc1-2 protein expression", "setting": "[1]; SPB, summary of Table 7", "result": "markedly depressed"}, {"measurement": "UC28 expression", "setting": "[1]; SPB, summary of Table 7", "result": "significantly up regulated"}, {"measurement": "UC28 membrane protein expression", "setting": "LNCaP cell line; 0.5 to 25 mM SPB, LNCaP", "result": "dramatically over expressing"}, {"measurement": "URCO28 expression", "setting": "LNCaP cell line; LNCap treated with SPB", "result": "remained elevated"}, {"measurement": "UC28 membrane protein expression", "setting": "C4-2B cell line; 0.5 to 25 mM SPB, C4-2B", "result": "dramatically over expressing"}, {"measurement": "URCO28 expression", "setting": "C4-2B cell line; C4-2B treated with SPB", "result": "remained elevated"}]}
